Literature values as cited in US12256762B2, “Sweetener composition and methods of making it” (eBIO Nutritional Sciences LLC, priority 2017, dated 2025).

Conditions: published partition coefficients

Compound | Partition Coefficient (log P)
CCCCCCCC/C=C\CCCCCCCC(=O)O [Oleic C18:1] | 7.68
Cucurbitacin [reference compound] | 3.19
CCCCCCCCCCCCCCCCCC(=O)O [Stearic C18:0] | 8.02
CC/C=C\C/C=C\C/C=C\CCCCCCCC(=O)O [Alpha-Linolenic C18:3] | 6.59
C=C1C[C@@]23CC[C@H]4[C@@](C)(CCC[C@@]4(C)C(=O)O)[C@@H]2CC[C@]1(O)C3 [Steviol, reference compound] | 3.18
CCCCCCCCCCCCCCCC(=O)O [Palmitic C16:0] | 7.23
CCCCC/C=C\C/C=C\CCCCCCCC(=O)O [Linoleic C18:2] | 7.06
